What is called melting point is the temperature, or range, at which the solid turns liquid. Turning to `O=C(NCC1C2CCC1CNC2)C(O)(c1ccccc1)c1ccccc1` (stereo not shown), the melting point was 85.2 °C.

These data come from patent US20090105221A1, “MUSCARINIC RECEPTOR ANTAGONISTS” (RANBAXY LABORATORIES LIMITED, priority 2004, published 2009).
